Assays:
Test in all cases: IA-DTB cysteine engagement
Assay type in all cases: binding
FABP5_C127 = target: T1, FABP5_C127 (Homo sapiens, UniProt Q01469); conditions: 22Rv1 cells, 20 μM probe, 1 h, relative to DMSO
T1 construct: endogenous in cells; host or cells: 22Rv1
How it was run: (§1)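 Competitive chemoproteomics: residual cysteine reactivity toward IA-DTB in lysates from probe-treated cells was quantified by TMT reporter ions relative to DMSO-treated controls. Replicates sharing cell line, probe, concentration and duration were averaged.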

DHRS13_C174 = target: T2, DHRS13_C174 (Homo sapiens, UniProt Q6UX07); conditions: 22Rv1 cells, 20 μM probe, 1 h, relative to DMSO
T2 construct: endogenous in cells; host or cells: 22Rv1
T2 sequence (Q6UX07 26-377): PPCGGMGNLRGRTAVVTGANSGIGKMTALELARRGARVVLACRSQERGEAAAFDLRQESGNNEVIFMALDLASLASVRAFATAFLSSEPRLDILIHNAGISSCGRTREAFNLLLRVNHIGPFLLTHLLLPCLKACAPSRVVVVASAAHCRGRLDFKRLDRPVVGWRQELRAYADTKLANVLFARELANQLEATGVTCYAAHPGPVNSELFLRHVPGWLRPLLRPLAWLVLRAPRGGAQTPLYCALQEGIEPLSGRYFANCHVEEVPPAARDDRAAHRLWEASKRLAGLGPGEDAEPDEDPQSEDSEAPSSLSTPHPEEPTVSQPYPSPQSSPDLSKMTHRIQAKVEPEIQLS
How it was run: as §1

COX6B1_C54 = target: T3, COX6B1_C54 (Homo sapiens, UniProt P14854); conditions: 22Rv1 cells, 20 μM probe, 1 h, relative to DMSO
T3 construct: endogenous in cells; host or cells: 22Rv1
T3 sequence (P14854 whole entry): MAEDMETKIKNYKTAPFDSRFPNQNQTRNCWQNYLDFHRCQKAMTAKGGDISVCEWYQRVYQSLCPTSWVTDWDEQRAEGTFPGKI
How it was run: as §1

NUDT16L1_C88 = target: T4, NUDT16L1_C88 (Homo sapiens, UniProt Q9BRJ7); conditions: 22Rv1 cells, relative to DMSO; for % engagement NUDT16L1_C88: 20 μM probe, 1 h; for % engagement NUDT16L1_88: 5 μM probe, 1 h (FIG. 5B)
T4 construct: endogenous in cells; host or cells: 22Rv1
T4 sequence (Q9BRJ7 whole entry): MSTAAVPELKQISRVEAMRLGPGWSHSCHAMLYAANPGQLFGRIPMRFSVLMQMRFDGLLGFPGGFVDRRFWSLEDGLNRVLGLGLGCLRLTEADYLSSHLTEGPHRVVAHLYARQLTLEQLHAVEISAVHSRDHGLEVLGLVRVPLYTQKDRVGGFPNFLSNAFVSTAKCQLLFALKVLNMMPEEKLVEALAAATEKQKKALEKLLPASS
How it was run: as §1

T1 sequence (Q01469 whole entry): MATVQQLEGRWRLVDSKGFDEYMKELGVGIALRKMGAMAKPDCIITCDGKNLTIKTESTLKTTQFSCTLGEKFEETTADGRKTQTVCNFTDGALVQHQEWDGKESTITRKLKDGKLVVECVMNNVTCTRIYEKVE

Compound | % engagement FABP5_C127 (FABP5_C127) [%] | % engagement DHRS13_C174 (DHRS13_C174) [%] | % engagement COX6B1_C54 (COX6B1_C54) [%] | % engagement NUDT16L1_C88 (NUDT16L1_C88) [%] | % engagement NUDT16L1_88 (NUDT16L1_C88) [%]
C=CC(=O)N1C[C@H](c2ccc(Br)cc2)[C@H]1C(=O)Nc1cccc2cccnc12 [MY-3B, (2S,3S)-1-acryloyl-3-(4-bromophenyl)-N-(quinolin-8-yl)azetidine-2-carboxamide] | −60.5 | 61.75 | 36.5 | 87.5 | 
CC#CC(=O)N1C[C@H](c2ccc(Br)cc2)[C@@H]1C(=O)Nc1cccc2cccnc12 [MY-45B, (2R,3S)-3-(4-bromophenyl)-1-(but-2-ynoyl)-N-(quinolin-8-yl)azetidine-2-carboxamide] |  |  |  |  | 9.38
C=CC(=O)N1C[C@H](c2ccc(Br)cc2)[C@@H]1C(=O)Nc1cccc2cccnc12 [MY-1B, (2R,3S)-1-acryloyl-3-(4-bromophenyl)-N-(quinolin-8-yl)azetidine-2-carboxamide] | 73 | 69.75 | 56 | 88.5 | 67.63

Second part, the compound after the results:

% engagement FABP5_C127 (FABP5_C127) [%] | % engagement DHRS13_C174 (DHRS13_C174) [%] | % engagement COX6B1_C54 (COX6B1_C54) [%] | % engagement NUDT16L1_C88 (NUDT16L1_C88) [%] | % engagement NUDT16L1_88 (NUDT16L1_C88) [%] | Compound
−13 | 42 | 33.5 | 14.5 |  | C=CC(=O)N1C[C@H](c2ccc(Br)cc2)[C@H]1C(=O)Nc1cccc2cccnc12 [MY-3A, (2S,3S)-1-acryloyl-3-(4-bromophenyl)-N-(quinolin-8-yl)azetidine-2-carboxamide]
0 | 60.25 | 66.5 | 33.25 |  | C=CC(=O)N1C[C@@H](c2ccc(Br)cc2)[C@H]1C(=O)Nc1cccc2cccnc12 [MY-1A, (2S,3R)-1-acryloyl-3-(4-bromophenyl)-N-(quinolin-8-yl)azetidine-2-carboxamide]

Reference: patent US20250034216A1, “STEREOSELECTIVE COVALENT LIGANDS FOR ONCOGENIC AND IMMUNOLOGICAL PROTEINS” (The Scripps Research Institute, priority 2021, published 2025)
